Results on 56 molecules are retold here after US10774052B2, “Heteroaryl compounds and uses thereof” (Celgene CAR LLC, priority 2013, dated 2020).

By EC50 is commonly meant the concentration giving half of the maximal effect.

In the first assay the test system is pFGFR4 in MDA-MB-453 cells. Put plainly: FGFR4 signaling, pFGFR4 (MDA); Western blot (Method A), MSD (Method B), ELISA (Method C). The assay is classed as cell-based. The note with it: Homo sapiens, MDA-MB-453, MDA-MB-453 cells; Method B (MSD) for signaling EC50 determination. The protocol:
The MDA-MB-453 protein concentrations were determined by a BCA Assay (Pierce, Rockford, Ill.). A sample of 50-100 μg of each lysate was separated by a 4-12% gradient (SDS-PAGE (Invitrogen)), transferred to a nitrocellulose membrane (Biorad, Hercules, Calif.), and probed with specific antibodies. Phospho-protein signals were quantitated using Odyssey Infrared Imaging (Li-Cor Biosciences).
To assess phospho-FGFR signaling, the blots were probed with anti-Phospho-FGFR (Y653/Y654) and total anti-FGFR antibodies. The phospho-FGFR signal was normalized to total FGFR expression for each sample.
`C=CC(=O)NC1CCCCC1Nc1ncc2c(n1)N(C)C(=O)N(c1cc(OC)cc(OC)c1)C2` (racemic) [Compound I-18] returned a concentration giving a half-maximal response (EC50) greater than 1000 nM. Molecule `C=CC(=O)NC1CCCCC1Nc1ncc2c(n1)N(C1CCCN(C(=O)OC(C)(C)C)C1)C(=O)N(c1cc(OC)cc(OC)c1)C2` (racemic) [Compound I-45] registered an EC50 greater than 1000 nM. Molecule `C=CC(=O)NC1CCCCC1Nc1ncc2c(n1)N(C1CCCNC1)C(=O)N(c1cc(OC)cc(OC)c1)C2` (racemic) [Compound I-46] registered an EC50 greater than 1000 nM. Still for that read-out and setting: as for `C=CC(=O)Nc1ccccc1Nc1ncc2c(n1)N(Cc1cccc(F)c1)C(=O)N(c1c(Cl)c(OC)cc(OC)c1Cl)C2` [Compound I-12], the figure is less than 100 nM; as for `C=CC(=O)Nc1ccccc1Nc1ncc2c(n1)N(C)C(=O)N(c1ccccc1)C2` [Compound I-38], greater than 1000 nM.

For the molecule `C=CC(=O)Nc1ccccc1Oc1ncc2c(n1)N(C)C(=O)N(c1c(Cl)c(OC)cc(OC)c1Cl)C2` [Compound I-65], the EC50 was 101 to 500 nM. Same read-out and setting: as for `C=CC(=O)Nc1cc(-c2nccs2)ccc1Nc1ncc2c(n1)N(C)C(=O)N(c1cc(OC)cc(OC)c1)C2` [Compound I-84], the figure is 101 to 500 nM; as for `C=CC(=O)Nc1ccccc1Nc1ncc2c(n1)N(Cc1nccs1)C(=O)N(c1c(Cl)c(OC)cc(OC)c1Cl)C2` [Compound I-91], less than 100 nM; as for `C=CC(=O)N[C@H]1CCCC[C@H]1Nc1ncc2c(n1)N(Cc1nccs1)C(=O)N(c1c(Cl)c(OC)cc(OC)c1Cl)C2` [Compound I-92], 101 to 500 nM. Same read-out and setting: as for `C=CC(=O)N[C@@H]1CCCC[C@@H]1Nc1ncc2c(n1)N(Cc1nccs1)C(=O)N(c1c(Cl)c(OC)cc(OC)c1Cl)C2` [Compound I-93], the figure is greater than 1000 nM; as for `C=CC(=O)Nc1ccccc1Nc1ncc2c(n1)N(CC(=O)OC(C)(C)C)C(=O)N(c1cc(OC)cc(OC)c1)C2` [Compound I-96], greater than 1000 nM; as for `C=CC(=O)NC1CCCCC1Nc1ncc2c(n1)N(CC1CC1)C(=O)N(c1cc(OC)cc(OC)c1Cl)C2` (centres unmarked) [Compound I-101], 101 to 500 nM. In the case of `C=CC(=O)Nc1ccccc1Nc1ncc2c(n1)N(CC)C(=O)N(CC)C2` [Compound I-120], the concentration giving a half-maximal response (EC50) was greater than 1000 nM. In turn, `C=CC(=O)Nc1cc(CN2CCN(CC)CC2)ccc1Nc1ncc2c(n1)N(C)C(=O)N(c1cc(OC)cc(OC)c1)C2` [Compound I-122] gave an EC50 of 101 to 500 nM.

Staying with this assay, now noted: Homo sapiens; MDA-MB-453 cells; Method A (Western blot) for signaling EC50 determination.
The molecule `C=CC(=O)Nc1ccccc1Nc1ncc2c(n1)N(C)C(=O)N(c1c(Cl)c(OC)cc(OC)c1Cl)C2` [Compound I-2] displayed an EC50 of less than 100 nM.

Staying with this assay, now noted: Homo sapiens; MDA-MB-453 cells; Method B (MSD) for signaling EC50 determination.
In turn, `C=CC(=O)NC1CCCCC1Nc1ncc2c(n1)N(Cc1cccnc1)C(=O)N(c1c(Cl)c(OC)cc(OC)c1Cl)C2` (racemic) [Compound I-35] returned a concentration for a half-maximal effect (EC50) of 101 to 500 nM. For the molecule `C=CC(=O)NC1CCCCC1Nc1ncc2c(n1)N(C1CCC1)C(=O)N(c1c(Cl)c(OC)cc(OC)c1Cl)C2` (racemic) [Compound I-70], the half-maximal effective concentration (EC50) lay in the range of 101 to 500 nM. In turn, `C=CC(=O)NC1CCCCC1Nc1ncc2c(n1)NC(=O)N(c1c(Cl)c(OC)cc(OC)c1Cl)C2` (racemic) [Compound I-73] returned an EC50 of 101 to 500 nM. `C=CC(=O)NC1CCCCC1Nc1ncc2c(n1)N(Cc1cccc(NS(C)(=O)=O)c1)C(=O)N(c1c(Cl)c(OC)cc(OC)c1Cl)C2` (racemic) [Compound I-89]: the concentration for a half-maximal effect (EC50) was 101 to 500 nM. Same read-out and setting: as for `C=CC(=O)NC1CCCC1Nc1ncc2c(n1)N(C)C(=O)N(c1c(Cl)c(OC)cc(OC)c1Cl)C2` (racemic) [Compound I-112], the figure is 101 to 500 nM; as for `C=CC(=O)NC1CCCCC1Nc1ncc2c(n1)N(CC1CC1)C(=O)N(c1c(Cl)c(OC)cc(OC)c1Cl)C2` (racemic) [Compound I-129], 101 to 500 nM. Same read-out and setting: as for `C=CC(=O)Nc1cc(Cl)c(Cl)cc1Nc1ncc2c(n1)N(Cc1ccccc1)C(=O)N(c1c(Cl)c(OC)cc(OC)c1Cl)C2` [Compound I-11], the figure is greater than 1000 nM; as for `C=CC(=O)Nc1cc(OCCOC)ccc1Nc1ncc2c(n1)N(Cc1ccccc1)C(=O)N(c1cc(OC)cc(OC)c1)C2` [Compound I-14], 101 to 500 nM. The same measure, in the same setting: as for `C=CC(=O)Nc1cc(N2CCN(CC)CC2)ccc1Nc1ncc2c(n1)N(C)C(=O)N(c1cc(OC)cc(OC)c1)C2` [Compound I-15], the figure is less than 100 nM; as for `C=CC(=O)Nc1cc(N2CCOCC2)ccc1Nc1ncc2c(n1)N(C)C(=O)N(c1cc(OC)cc(OC)c1)C2` [Compound I-17], less than 100 nM. In turn, `C=CC(=O)Nc1cc(N2CCN(CCOC)CC2)ccc1Nc1ncc2c(n1)N(C)C(=O)N(c1cc(OC)cc(OC)c1)C2` [Compound I-20] registered an EC50 of less than 100 nM. The same measure, in the same setting: as for `C=CC(=O)Nc1ccccc1Nc1ncc2c(n1)N(C1CC1)C(=O)N(c1c(Cl)c(OC)cc(OC)c1Cl)C2` [Compound I-23], the figure is less than 100 nM; as for `C=CC(=O)Nc1ccccc1Nc1ncc2c(n1)N(Cc1ccc(Cl)c(OC)c1)C(=O)N(c1c(Cl)c(OC)cc(OC)c1Cl)C2` [Compound I-24], less than 100 nM; as for `C=CC(=O)Nc1ccccc1Nc1ncc2c(n1)N(Cc1cccc(OC)c1)C(=O)N(c1c(Cl)c(OC)cc(OC)c1Cl)C2` [Compound I-28], less than 100 nM.

With `C=CC(=O)Nc1ccc(N2CCN(CC)CC2)cc1Nc1ncc2c(n1)N(C)C(=O)N(c1cc(OC)cc(OC)c1)C2` [Compound I-30], the concentration for a half-maximal effect (EC50) is 101 to 500 nM.

`C=CC(=O)Nc1cc(N2CCCCC2)ccc1Nc1ncc2c(n1)N(C)C(=O)N(c1cc(OC)cc(OC)c1)C2` [Compound I-31] returned an EC50 of 101 to 500 nM. On the same count and under the same terms, as for `C=CCN1C(=O)N(c2cc(OC)cc(OC)c2)Cc2cnc(Nc3ccccc3NC(=O)C=C)nc21` [Compound I-32], the figure is less than 100 nM; as for `C=CC(=O)Nc1ccccc1Nc1ncc2c(n1)N(C1CC1)C(=O)N(c1cc(OC)cc(OC)c1)C2` [Compound I-34], less than 100 nM. Still for that read-out and setting: as for `C=CC(=O)Nc1ccccc1Nc1ncc2c(n1)N(CC1CCNCC1)C(=O)N(c1cc(OC)cc(OC)c1)C2` [Compound I-40], the figure is greater than 1000 nM.

As to `C=CC(=O)Nc1ccc(C)cc1Nc1ncc2c(n1)N(C)C(=O)N(c1cc(OC)cc(OC)c1)C2` [Compound I-49], the concentration giving a half-maximal response (EC50) was 501 to 999 nM. On the same count and under the same terms, as for `C=CC(=O)Nc1ccccc1Nc1ncc2c(n1)N(C)C(=O)N(C1CCCCC1)C2` [Compound I-52], the figure is greater than 1000 nM; as for `C=CC(=O)Nc1cc(C2CCN(CC)CC2)ccc1Nc1ncc2c(n1)N(C)C(=O)N(c1cc(OC)cc(OC)c1)C2` [Compound I-54], 101 to 500 nM. `C=CC(=O)Nc1cc(C2=CCN(CC)CC2)ccc1Nc1ncc2c(n1)N(C)C(=O)N(c1cc(OC)cc(OC)c1)C2` [Compound I-56]: the EC50 is less than 100 nM. Still for that read-out and setting: as for `C=CCCN1C(=O)N(c2cc(OC)cc(OC)c2)Cc2cnc(Nc3ccccc3NC(=O)C=C)nc21` [Compound I-57], the figure is less than 100 nM; as for `C=CC(=O)Nc1ccccc1Nc1ncc2c(n1)N(CCC(O)CO)C(=O)N(c1cc(OC)cc(OC)c1)C2` (centres unmarked) [Compound I-58], 101 to 500 nM. Consider `C=CC(=O)Nc1ccccc1Nc1ncc2c(n1)N(CC1CCN(C(=O)OC(C)(C)C)CC1)C(=O)N(c1cc(OC)cc(OC)c1)C2` [Compound I-60], for which the EC50 is 101 to 500 nM.

`C=CC(=O)Nc1cc(N2CCN(C(=O)OC(C)(C)C)CC2)ccc1Nc1ncc2c(n1)N(C)C(=O)N(c1c(Cl)c(OC)cc(OC)c1Cl)C2` [Compound I-62] gave an EC50 of less than 100 nM.

Regarding `C=CC(=O)N[C@@H]1CCCC[C@@H]1Nc1ncc2c(n1)N(Cc1ccccc1)C(=O)N(c1c(Cl)c(OC)cc(OC)c1Cl)C2` [Compound I-66], the EC50 was greater than 1000 nM.

In turn, `C=CS(=O)(=O)Nc1ccccc1Nc1ncc2c(n1)N(C)C(=O)N(c1cc(OC)cc(OC)c1)C2` [Compound I-67] gave an EC50 of less than 100 nM. Same read-out and setting: as for `C=CC(=O)Nc1ccc(-c2cnn(C)c2)cc1Nc1ncc2c(n1)N(C)C(=O)N(c1c(Cl)c(OC)cc(OC)c1Cl)C2` [Compound I-74], the figure is less than 100 nM; as for `C=CC(=O)Nc1ccccc1Nc1ncc2c(n1)N(C)C(=O)N(c1cc(OC)cc(OC)c1Cl)C2` [Compound I-75], less than 100 nM.

`C=CC(=O)Nc1cc(-c2cnn(C)c2)ccc1Nc1ncc2c(n1)N(C)C(=O)N(c1cc(OC)cc(OC)c1)C2` [Compound I-77]: the EC50 is less than 100 nM. On the same count and under the same terms, as for `C=CC(=O)Nc1ccc(-c2nccs2)cc1Nc1ncc2c(n1)N(C)C(=O)N(c1cc(OC)cc(OC)c1)C2` [Compound I-78], the figure is 101 to 500 nM; as for `C=CC(=O)N[C@H]1CCCC[C@H]1Nc1ncc2c(n1)N(Cc1ccccc1)C(=O)N(c1c(Cl)c(OC)cc(OC)c1Cl)C2` [Compound I-82], less than 100 nM; as for `C=CC(=O)Nc1ccccc1Nc1ncc2c(n1)N(Cc1cscn1)C(=O)N(c1c(Cl)c(OC)cc(OC)c1Cl)C2` [Compound I-86], less than 100 nM. In turn, `C=CC(=O)Nc1ccccc1Nc1ncc2c(n1)N(Cc1cccc(C#N)c1)C(=O)N(c1cc(OC)cc(OC)c1)C2` [Compound I-90] yielded an EC50 of 101 to 500 nM. Still for that read-out and setting: as for `C=CC(=O)Nc1ccccc1Nc1ncc2c(n1)N(CC(F)F)C(=O)N(c1c(Cl)c(OC)cc(OC)c1Cl)C2` [Compound I-103], the figure is less than 100 nM; as for `C=CC(=O)Nc1ccccc1Nc1ncc2c(n1)N(C)C(=O)N(c1cc(OC)cc(OC)c1F)C2` [Compound I-108], less than 100 nM. Molecule `C=CC(=O)Nc1ccccc1Nc1ncc2c(n1)N(CC1CC1)C(=O)N(c1cc(OC)cc(OC)c1F)C2` [Compound I-109] showed an EC50 of less than 100 nM.

The assay is the same for the next values; noted with them: Homo sapiens; MDA-MB-453 cells; Method C (ELISA) for signaling EC50 determination.
In turn, `C=CC(=O)Nc1ccccc1Nc1ncc2c(n1)N(Cc1ccccc1)C(=O)N(c1c(Cl)c(OC)cc(OC)c1Cl)C2` [Compound I-3] gave a concentration giving a half-maximal response (EC50) of less than 100 nM.

Still in this assay, the particulars now being: MDA-MB-453 cells; Method B (MSD) for signaling EC50 determination.
`C=CC(=O)Nc1cc(C(F)(F)F)ccc1Nc1ncc2c(n1)N(Cc1ccccc1)C(=O)N(c1c(Cl)c(OC)cc(OC)c1Cl)C2` [Compound I-10] returned an EC50 greater than 1000 nM.
